Earlier results on three compounds are cited in patent publication EP3581172B1, “A PHARMACEUTICAL COMPOSITION WITH ENHANCED BIOAVAILABILITY CONTAINING A MEDICAL HERBAL EXTRACT” (TFLL Pharmaceutical Food Supplements and Cosmetic Products …, priority 2018, dated 2019).

For data set [1], the system named is colon cancer stimulated by 1,2-dimethylhydrazine (DMH).
The next data set concerns breast cancer. To be noted: topical curcumin ointment; 7 breast cancer patients.
The test system of data set [2] is esophageal carcinogenesis. To be noted: rats, by diet (500 ppm).
The next data set relates to adenoma. To be noted: rats.

Like-named read-outs stand apart in the source and are kept apart here.

Regarding `COc1cc(CCC(=O)CC(=O)CCc2ccc(O)c(OC)c2)ccc1O` [THC, tetrahydrokurkuminin], the “effect on upper and lower half sections of colon crypts” value in data set [1] is recorded as “significant decrease”.
On to `COc1cc(/C=C/C(=O)CC(=O)/C=C/c2ccc(O)c(OC)c2)ccc1O` [curcumin, (1E,6E)-1,7-bis (4-hydroxy-3-methoxyphenyl)-1,6-heptadiene-3,5-dione], for which the water solubility entry is “almost negligible”. Moreover, the “positive responses (significant reduction in lesion size, pain, itching and leaks), share of patients” value with breast cancer is given as 71%. For the same compound, the esophageal carcinogenesis inhibited in data set [2] (maintenance dose) is 33%. The esophageal carcinogenesis inhibited in data set [2] (onset dose) is given as 27%. Moreover, the decrease in adenoma in the data set on adenoma (by diet 0.2% for 15 weeks) is on record as 39%. Besides, in the data set with adenoma (by diet 0.5% for 15 weeks), the decrease in adenoma was 40%.
`COc1ccc(/C=C/C(=O)CC(=O)/C=C/c2ccc(OC)c(OC)c2)cc1OC` [dimethoxycurcumin]: in the data set with HCT116 cells, the “reducing proliferation and stimulating apoptosis, compared to curcumin” value is “more effective”.
